How the values were obtained:
[1] = target: T1, ATP-dependent translocase ABCB1 (Homo sapiens, UniProt P08183); assay: TP_TRANSPORTER: inhibition of Saquinavir transepithelial transport (basal to apical) in Caco-2 cells; type: functional, cell-based
[2] = target: T1, ATP-dependent translocase ABCB1; assay: TP_TRANSPORTER: transepithelial transport (basal to apical) in Caco-2 cells; type: functional, cell-based

T1 sequence (P08183 whole entry): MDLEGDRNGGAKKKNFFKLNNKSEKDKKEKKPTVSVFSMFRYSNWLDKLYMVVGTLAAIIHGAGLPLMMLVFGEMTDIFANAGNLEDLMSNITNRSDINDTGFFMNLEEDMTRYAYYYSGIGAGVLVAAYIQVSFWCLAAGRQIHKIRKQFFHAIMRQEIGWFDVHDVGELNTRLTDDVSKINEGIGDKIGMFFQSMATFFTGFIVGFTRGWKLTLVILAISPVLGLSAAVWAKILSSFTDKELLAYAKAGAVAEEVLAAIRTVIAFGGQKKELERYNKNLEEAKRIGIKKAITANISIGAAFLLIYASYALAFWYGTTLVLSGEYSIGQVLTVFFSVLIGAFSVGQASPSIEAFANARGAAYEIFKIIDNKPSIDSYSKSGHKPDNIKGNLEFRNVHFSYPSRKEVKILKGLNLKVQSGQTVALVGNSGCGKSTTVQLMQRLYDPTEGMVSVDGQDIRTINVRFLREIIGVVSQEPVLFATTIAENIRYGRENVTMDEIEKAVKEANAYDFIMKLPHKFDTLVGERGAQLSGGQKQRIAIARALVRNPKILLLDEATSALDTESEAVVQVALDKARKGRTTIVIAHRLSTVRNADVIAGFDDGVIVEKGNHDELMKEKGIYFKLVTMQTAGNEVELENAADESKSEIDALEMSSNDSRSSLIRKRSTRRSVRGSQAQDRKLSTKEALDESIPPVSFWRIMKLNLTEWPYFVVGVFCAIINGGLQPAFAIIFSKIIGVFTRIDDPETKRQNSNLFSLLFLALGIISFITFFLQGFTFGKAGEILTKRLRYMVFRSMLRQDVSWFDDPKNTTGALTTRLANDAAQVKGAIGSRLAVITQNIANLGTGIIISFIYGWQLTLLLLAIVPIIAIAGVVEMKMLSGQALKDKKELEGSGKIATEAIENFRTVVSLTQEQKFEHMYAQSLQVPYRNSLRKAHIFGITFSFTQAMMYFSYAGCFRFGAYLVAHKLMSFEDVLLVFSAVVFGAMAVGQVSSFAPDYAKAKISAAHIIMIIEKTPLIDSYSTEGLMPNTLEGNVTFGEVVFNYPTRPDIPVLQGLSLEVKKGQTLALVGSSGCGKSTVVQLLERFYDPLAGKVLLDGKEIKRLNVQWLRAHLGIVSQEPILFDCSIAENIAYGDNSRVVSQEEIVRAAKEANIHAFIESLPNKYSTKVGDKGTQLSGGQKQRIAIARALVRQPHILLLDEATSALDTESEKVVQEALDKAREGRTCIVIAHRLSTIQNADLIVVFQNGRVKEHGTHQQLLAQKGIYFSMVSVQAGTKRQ

| SMILES | Activity [1] | Activity [2] |
| --- | --- | --- |
| C/C(=C\COc1c2ccoc2cc2oc(=O)ccc12)CC[C@@H](O)C(C)(C)O | is not an inhibitor [-] |  |
| CC(C)=CCC/C(C)=C/COc1c2ccoc2cc2oc(=O)ccc12 [BERGAMOTTIN] | is not an inhibitor [-] |  |
| O=C1C[C@@H](c2ccc(O)cc2)Oc2cc(O)cc(O)c21 [NARINGENIN] | inhibitor [+] |  |

More lines, now with the values ahead:

| Activity [1] | Activity [2] | SMILES |
| --- | --- | --- |
| inhibitor [+] |  | C[C@@H]1O[C@@H](O[C@H]2[C@H](Oc3cc(O)c4c(c3)O[C@H](c3ccc(O)cc3)CC4=O)O[C@H](CO)[C@@H](O)[C@@H]2O)[C@H](O)[C@H](O)[C@H]1O [NARINGIN] |
|  | substrate [+] | CC(C)(C)NC(=O)[C@@H]1C[C@@H]2CCCC[C@@H]2CN1C[C@@H](O)[C@H](Cc1ccccc1)NC(=O)[C@H](CC(N)=O)NC(=O)c1ccc2ccccc2n1 [SAQUINAVIR] |

— ChEMBL document CHEMBL2073847, “Inhibition of the CYP3A4-mediated metabolism and P-glycoprotein-mediated transport of the HIV-1 protease inhibitor saquinavir by grapefruit juice components” (Br J Clin Pharmacol, 1999)
